Results published in patent US20110166226A1, “PROCESS FOR OBTAINING AN EXTRACT RICH IN ROSMARINIC ACID (RA) FROM THE PLANT ORIGANUM VULGARE AND ITS USE FOR THE TREATMENT OF DIABETES” (ACEF S/A, priority 2008, published 2011).

How the values were obtained:
Assay type in all cases: in vivo, rat
[1] = system: diabetic rats induced by alloxan; assay: Hypoglycemiant activity in diabetic rats induced by alloxan, 15 days oral treatment then follow-up without treatment; details: for plasmatic levels of glycemia: mean ± EPM
Method: The induction of diabetes in animals was done by using alloxan. The animals stayed in fasting for 24 hours before receiving injections of alloxan, so that the animals became more susceptive to diabetes. After a pilot study, the dose of alloxan that was used was 40 mg/kg injected via intravenous in caudal vein. Alloxan was diluted in sodium citrate 0.05M pH 4.5 and the injected volume was 500. During the four hours after the injection, the animals received glucose solution 5% via oral (ad libidum) in order to prevent from seizures and death, what is common in hypoglycemia. On the first two days after diabetes induction, the animals received an insulin injection (100 μl—diluted 1/10) at every 24 hs via subcutaneous (FIG. 3). This procedure guarantees animals to survive during the disease acute phase enabling the study. […] To use in the animals, it was employed corresponding doses, considering animals body mass, which is about 250 mg/kg of hydroalcoholic extract, 55 mL of infusion/rat and 25 mg/kg of RA. The animals received treatment via oral (v.o.), being maintained during a period of 40 days. The first 15 days evaluated by receiving treatment and the subsequent days with no treatment, so that it was possible to evaluate the potential to maintain the glycemic level. The obtained results are represented in the charts from FIGS. 4 to 7. As it can be observed in FIG. 4, the glycemic levels were monitored during 15 alternate days. After 15 days, the treatment was suspended (ST) and it was evaluated during 5, 10, 15 and 40 days. The data represent the mean±EPM, P<0.0001, when compared to the answer obtained for the groups DTE versus CD and CD versus CN (Anova followed by the Turkey-Kramer test). In FIG. 5, glycemic levels were monitored during 15 alternate days. After 15 days, the treatment was suspended (ST) and it was evaluated during 5, 10, 15 and 40 days. The data represent the mean±EPM, P<0.0001, when compared to the answer obtained for the groups DTAR versus CD and CD versus CN (Anova followed by the Turkey-Kramer test). In FIG. 6, glycemic levels were monitored during 15 alternate days. After 15 days, the treatment was suspended (ST) and it was evaluated during 5, 10, 15 and 40 days. The data represent the mean±EPM, P<0.0001, when compared to the answer obtained for the groups DTC versus CD and CD versus CN (Anova followed by the Turkey-Kramer test). In FIG. 7, glycemic levels were monitored during 15 alternate days. After 15 days, the treatment was suspended (ST) and it was evaluated during 5, 10, 15 and 40 days. The data represent the mean±EPM, P<0.0001, when compared to the answer obtained for the groups treated versus CD. (Anova followed by the Turkey-Kramer test).

[2] = system: diabetic rats induced by alloxan; assay: Glycemia monitored for 4 h (60, 120 and 240 minutes) in diabetic rats, chlorpropamide as positive control (FIG. 8); details: 25 mg/kg v.o., chlorpropamide 40 mg/kg as positive control (FIG. 8)
Method: FIG. 8—Graphic of the variation in plasmatic levels of glycemia (mg/dL), observed in the different experimental groups: Diabetic treated with hydroalcoholic extract (DTE, 250 mg/kg, v.o.), Diabetic treated with Rosmarinic Acid (DTRA, 25 mg/kg, v.o.), Diabetic treated with drugs in the market (Clorpropamida, 40 mg/kg), Diabetic Control (DC) and Normoglycemic Control (NC).
The induction of diabetes in animals was done by using alloxan. The animals stayed in fasting for 24 hours before receiving injections of alloxan, so that the animals became more susceptive to diabetes. After a pilot study, the dose of alloxan that was used was 40 mg/kg injected via intravenous in caudal vein. Alloxan was diluted in sodium citrate 0.05M pH 4.5 and the injected volume was 500. During the four hours after the injection, the animals received glucose solution 5% via oral (ad libidum) in order to prevent from seizures and death, what is common in hypoglycemia. On the first two days after diabetes induction, the animals received an insulin injection (100 μl—diluted 1/10) at every 24 hs via subcutaneous (FIG. 3). This procedure guarantees animals to survive during the disease acute phase enabling the study.
In FIG. 8, glycemic levels were monitored after 60, 120 and 240 minutes. […]

normal rats = assay: Glycemic level in normal rats

## O=C(/C=C/c1ccc(O)c(O)c1)O[C@H](Cc1ccc(O)c(O)c1)C(=O)O [RA, rosmarinic acid]
[1]; 25 mg/kg v.o., 15 days treatment, followed to 40 days without treatment (FIG. 5)
  maintenance of the reduced glycemic level (result in words): in addition of reducing, it kept the glycemic level to the end of the experience
[1]; 5 ST: 5 days with no treatment after the 15 days of treatment
  plasmatic levels of glycemia: 112.5 ± 5.00 mg/dL
[1]; 10 ST: 10 days with no treatment after the 15 days of treatment
  plasmatic levels of glycemia: 101.5 ± 19.13 mg/dL
[1]; 15 ST: 15 days with no treatment after the 15 days of treatment
  plasmatic levels of glycemia: 103.5 ± 10.78 mg/dL
[1]; 40 ST: 40 days with no treatment after the 15 days of treatment
  plasmatic levels of glycemia: 109.3 ± 9.87 mg/dL
[1]; diabetic rats
  effect on level of plasmatic glycemic in diabetic rats (result in words): reducing the level of plasmatic glycemic in diabetic rats
[1]; evaluated day 0, v.o.: infusion 55 mL/rat, extract 250 mg/kg, RA 25 mg/kg
  plasmatic levels of glycemia: 362.6 ± 101.52 mg/dL
[1]; evaluated day 1 of treatment, v.o.: infusion 55 mL/rat, extract 250 mg/kg, RA 25 mg/kg
  plasmatic levels of glycemia: 136.6 ± 44.96 mg/dL
[1]; evaluated day 3 of treatment, v.o.: infusion 55 mL/rat, extract 250 mg/kg, RA 25 mg/kg
  plasmatic levels of glycemia: 114.0 ± 8.46 mg/dL
[1]; evaluated day 5 of treatment, v.o.: infusion 55 mL/rat, extract 250 mg/kg, RA 25 mg/kg
  plasmatic levels of glycemia: 71.5 ± 22.66 mg/dL
[1]; evaluated day 7 of treatment, v.o.: infusion 55 mL/rat, extract 250 mg/kg, RA 25 mg/kg
  plasmatic levels of glycemia: 124.5 ± 27.75 mg/dL
[1]; evaluated day 9 of treatment, v.o.: infusion 55 mL/rat, extract 250 mg/kg, RA 25 mg/kg
  plasmatic levels of glycemia: 100.1 ± 12.31 mg/dL
[1]; evaluated day 11 of treatment, v.o.: infusion 55 mL/rat, extract 250 mg/kg, RA 25 mg/kg
  plasmatic levels of glycemia: 108.0 ± 13.31 mg/dL
[1]; evaluated day 13 of treatment, v.o.: infusion 55 mL/rat, extract 250 mg/kg, RA 25 mg/kg
  plasmatic levels of glycemia: 92.1 ± 16.89 mg/dL
[1]; evaluated day 15 of treatment, v.o.: infusion 55 mL/rat, extract 250 mg/kg, RA 25 mg/kg
  plasmatic levels of glycemia: 102.0 ± 12.60 mg/dL
[2]
  effectiveness on glycemia monitored for 4 h (result in words): it was verified the effectiveness
Normal rats
  effect on glycemic level in normal rats (result in words): not reducing the glycemic level in normal rats
